From BigSolDB 2.1

CC(C)(OOC(C)(C)c1ccccc1)c1ccccc1
solubility (mole fraction)
Settings | 274.15 K | 278.15 K | 282.15 K | 286.15 K | 290.15 K | 294.15 K | 298.15 K | 302.15 K
in DMF | 0.152 | 0.196 | 0.246 | 0.305 | 0.365 | 0.44 | 0.518 | 0.619
in ethanol | 0.0152 | 0.0188 | 0.0236 | 0.0303 | 0.0418 | 0.0573 | 0.0851 | 0.142
in isopropanol | 0.0132 | 0.0168 | 0.0219 | 0.0291 | 0.0398 | 0.0567 | 0.0859 | 0.143
in methanol | 0.00668 | 0.00933 | 0.0118 | 0.0154 | 0.02 | 0.0283 | 0.0395 | 0.0602
in n-butanol | 0.0241 | 0.0317 | 0.0407 | 0.0541 | 0.07 | 0.0974 | 0.144 | 0.237
in n-propanol | 0.019 | 0.0253 | 0.0317 | 0.0425 | 0.0568 | 0.0783 | 0.118 | 0.194
in sec-butanol | 0.0161 | 0.0208 | 0.0275 | 0.036 | 0.0486 | 0.0724 | 0.107 | 0.183
